Laboratory results: patent US8278288B2, “Organosiloxanes containing ester derivatives of ascorbic acid” (Dow Corning Corporation, priority 2007, dated 2012)
Where two headings read alike, the source gives them in different places. Marks after values point to notes of the source that are not given here.

Key:
[1] = tested on: Melanoderm tissue model MEL 300 A; experiment: Skin whitening effect: melanin concentration in MelanoDerm tissue model; assay type: cell-based, human
Experimental: This example illustrates cell viability properties and efficacy of skin lightening formulations according to the present invention. In particular, two formulations according to the present invention (containing AUTS as prepared according to Example 4), water (a negative control), 1% kojic acid (Sigma, Wis.) in water (positive control), and ascorbyl tetraisopalmitate in D5 (decamethylcyclopentasiloxane) were assayed and compared for cell viability and skin lightening efficacy (see Table 1) MELANODERM™ cell viability was tested by MTT assay after exposure to test and reference preparations. The assays were carried out using Melanoderm tissue model MEL 300 A cell line (MELANODERM tissue model available from MatTek, Ashland, Mass.), This melanoderm model consists of normal, human-derived epidermal keratinocytes and melanocytes that have been co-cultured to form a multilayer, highly differentiated model of human epidermis. […] (Cell viability with both materials in D5 at 10 and 25 μL dose was >90%). Skin whitening effect was evaluated by measuring melanin concentration (μg/ml) after six applications of each preparation.

[2] = Solubility in various personal care solvents
Experimental: A 36 wt % mixture of the referenced sample and listed solvents were prepared in a glass vial. The sealed glass vials containing the mixtures were then placed in a 60° C. water bath and periodically shaken and observed.

[3] = 10 μl dose, six applications, in D5 (AUTS 3.2 wt %, VC-IP 6.4%)
[4] = 25 μl dose, six applications, in D5 (AUTS 3.2 wt %, VC-IP 6.4%)
[5] = 36 wt % mixture, 60° C. water bath, ** = nearly clear to hazy solution, gels when cooled to room temperature

Solubility in A = C12-15 Alkyl Benzoate (FINSOLV TN) [2] | Solubility in B = Cyclopentasiloxane (Dow/Corning 245 Fluid) [2] | Solubility in C = Squalane (Uniqema PRIPURE 3759) [2] | Solubility in D = Tricaprylin (TRIVENT OC-G) [2] | Solubility in Water [2] | Molecule | Melanin concentration at Day 10, Average [1, 3] | Melanin concentration at Day 10, Average [1, 4] | other results
 |  |  |  |  | O=c1cc(CO)occ1O [Kojic Acid, kojic acid] |  |  | Melanin concentration at Day 10, Average ([1]; 25 μL dose, 1 wt % in water, six applications (positive control)): 41.9 µg/mL
 |  |  |  |  | CCCCCCCCC(CCCCCC)C(=O)OC[C@H](OC(=O)C(CCCCCC)CCCCCCCC)[C@H]1OC(=O)C(OC(=O)C(CCCCCC)CCCCCCCC)=C1OC(=O)C(CCCCCC)CCCCCCCC (some centres unmarked) [VC-IP, ascorbyl tetraisopalmitate] | 57.8* μg/ml | 55.2** μg/ml | 
 |  |  |  |  | C[Si](C)(C)O[Si](C)(CCCCCCCCCCC(=O)OCC(O)C1OC(=O)C(O)=C1O)O[Si](C)(C)C (centres unmarked) [AUTS, Ascorbyl Undecyl Trisiloxane] | 37.4* μg/ml | 26.6** μg/ml | Solubility in Water ([2]; 36 wt % mixture, 60° C. water bath, * = translucent mixture that thickens to a viscous hazy liquid when cooled): No; Solubility in A = C12-15 Alkyl Benzoate (FINSOLV TN) [2, 5]: Yes**; Solubility in B = Cyclopentasiloxane (Dow/Corning 245 Fluid) [2, 5]: Yes**; Solubility in C = Squalane (Uniqema PRIPURE 3759) [2, 5]: Yes**; Solubility in E = Caprylic/Capric Triglyceride [2, 5]: Yes**
Yes | No | No | Yes | No | Bis-Ascorbyl Undecyl Polydimethylsiloxane [Comparative sample #2] |  |  | 
No | No | No | No | Yes* | Bis-Ascorbyl Undecyl Tetramethyldisiloxane [Comparative sample #1] |  |  | 
